Source: publication PMC11960782 (Nanoscale Advances, 2025)
Residues, ends and D or L forms follow the SMILES beside them.

Legend:
[1] = mouse, in vivo

## CCCCCCCCCCCCCCCC(=O)N[C@H](C(=O)N[C@H](C(=O)N[C@H](C(=O)N[C@@H](C)C(=O)N[C@@H](C)C(=O)N[C@@H](C)C(=O)N[C@@H](CCCCN)C(=O)N[C@@H](CCCCN)C(=O)N[C@@H](CCCCN)C(=O)NCC(=O)NCC(=O)NCC(=O)NCC(=O)N[C@@H](CO)C(=O)N[C@@H](CC(C)C)C(=O)N[C@@H](CC(C)C)C(=O)N[C@H](C(=O)N[C@@H](CCC(=O)O)C(=O)N[C@H](C(=O)N[C@@H](CCC(=O)O)C(=O)N[C@H](C(=O)N1CCC[C@H]1C(=O)N[C@H](C(=O)N[C@@H](CCCNC(=N)N)C(=O)N[C@@H](CC(N)=O)C(=O)N[C@@H](CCC(=O)O)C(=O)N[C@@H](Cc1c[nH]c2ccccc12)C(=O)NCC(=O)N[C@@H](CO)C(=O)N[C@@H](CCCNC(=N)N)C(=O)N[C@@H](CO)C(=O)N[C@@H](CC(N)=O)C(=O)NCC(=O)N[C@@H](CO)C(=O)N[C@@H](CO)C(=O)N[C@@H](CC(=O)O)C(=O)O)[C@@H](C)CC)[C@@H](C)O)C(C)C)[C@@H](C)O)C(C)C)C(C)C)C(C)C [PA–M2e] (HELM PEPTIDE1{[CCCCCCCCCCCCCCCC(=O)[*:2]].V.V.V.A.A.A.K.K.K.G.G.G.G.S.L.L.T.E.V.E.T.P.I.R.N.E.W.G.S.R.S.N.G.S.S.D}$$$$V2.0)
DC2.4 cells
  cell viability (metabolic activity, resazurin reduction): did not significantly decrease cell viability
  live–dead cell assay by confocal microscopy: confirmed the biocompatibility
[1]
  weight loss upon immunization: none of the mice experienced weight loss
